Experimental data published in paper PMC11868579 (Nature Communications, 2024).
Values joined by “and” are separate entries in the source; they are usually repeats but may differ in a detail not shown here. Identical values can stand only once.

Tests used:
[1] = system: cap-dependent and cap-independent (IRES) protein synthesis; experiment: Bicistronic protein synthesis reporter in HEK293 cells; type: cell-based, human; conditions: for Cap translation, Average / IRES, Average: HEK293, n=3; for Cap translation, Average: cap-dependent luciferase reporter; for IRES, Average: cap-independent luciferase driven by viral IRES
Description: Supplementary Fig. 10 Determination of the effects of compound 4 on protein synthesis and viability. a HEK293 cells were transfected with protein synthesis reporter expressing bicistonic mRNA with a cap-dependent luciferase reporter and a cap-independent luciferase driven by a viral IRES. Cells were treated with 1 or 10 µM […]
with compound 4 for 24 hr. […]
Source data is located in the Supplementary Source Data file

[2] = Suppl Fig. 10c, concentration response of Compound 4 (test not named); conditions: 3 experiments
[3] = Aqueous kinetic solubility at pH 7.5 by qNMR; type: physicochemical; conditions: 50 mM HEPES, 100 mM NaCl, 1 mM TCEP
Description: Measurement of aqueous kinetic solubility at pH 7.5
Solubility was measured in 50 mM HEPES, 100 mM NaCl (15% D2O, 85% H2O) in the presence of 1 mM TCEP at pH 7.5. Samples were prepared at 50 mM in DMSO-d6, diluted x 50 into buffer affording nominal concentrations of 1 mM and analysed by 1H quantitative NMR. Spectra were acquired at 300K in 5 mm tubes on a 400 MHz Bruker Avance III HD spectrometer equipped with a BBO-F probe using water suppression (presat/Watergate). A 5 mM sample of 4-hydroxybenzoic acid was used

[4] = biological target: eIF4E:eIF4G interaction (Homo sapiens, UniProt P06730); experiment: Electro-chemiluminescent binding assay, eIF4E:eIF4G, SW620 cell lysates; type: biochemical; set-up: endogenous in cells; host or cells: SW620 cells (lysates); conditions: for eIF4G:eIF4E luminescence signal normalised to DMSO control: SW620, Expt 1, Expt 2, Fig. 4d
Sequence of eIF4E:eIF4G interaction (P06730 2-217 limits assumed): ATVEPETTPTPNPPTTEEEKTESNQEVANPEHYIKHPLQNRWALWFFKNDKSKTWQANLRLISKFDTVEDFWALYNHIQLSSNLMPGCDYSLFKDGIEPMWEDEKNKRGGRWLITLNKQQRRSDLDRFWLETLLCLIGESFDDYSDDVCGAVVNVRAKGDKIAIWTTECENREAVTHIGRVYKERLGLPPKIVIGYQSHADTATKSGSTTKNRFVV
Description: This assay uses plates with carbon electrodes and electro-chemiluminescent labels (SULFO-TAGs) that are conjugated to detection antibodies. When an electric current is applied to the plate electrodes the SULFO-TAG labels will emit light that is measured to quantify analytes in the sample. […] The plates were washed with 3 ×150 µl/well MSD wash buffer (cat#R61AA-1; 0.2% Tween-20 in PBS), then blocked with 150 µl/well block buffer (MSD, cat# R93AA) for 1 h. […] The incubated plates were washed 4x in 150 µl in MSD wash buffer and were re-blocked by the addition of 25 μl of blocking buffer containing a 1:500 dilution of the secondary antibody and incubated for 1 hr at RT with rotational shaking. […] Plates were then washed again 4x in 150 µl in MSD wash buffer and 25 μl of a 1:50 dilution of Goat anti-rabbit Sulfo-Tag (MSD, Cat# R32AB-1) in MSD blocking buffer was added and the plates incubated for 1 h at RT with rotational shaking. After a final wash step, 150 μl Read Buffer T4X (MSD, Cat# R92-TC2) was added and the plate read using the MSD QuickPlex SQ 120 plate reader.

[5] = system: 4E-BP1 protein expression; experiment: Immunoblot of 4E-BP1 expression after dTAGV-1; type: cell-based, human; conditions: 1μM, control = 1.00
Description: Supplementary Fig. 15 Expression of 4E-BP1 following dTAGV-1 treatment. a […]
16 hr treatment of 1 µM dTAGV-1 or DMSO control in H1299 parental cells and the […]
Vinculin was used as a loading control. Results are representative of 3 biological replicates. b Quantification of 4E-BP1 protein expression […]
was normalised to the DMSO negative control immunoblot (mean ± SEM of 3 […]
differences (p<0.05). Source data is located in the Supplementary Source Data file.
(§1) (1 picture or pasted object on this page, not shown here)

[6] = system: H1299 clone C3-1; experiment: Concentration response of cell survival, clone C3-1, Incucyte; type: cell-based, human; conditions: clone C3-1, 5 days continuous exposure
Description: Real time monitoring of cell growth was performed with the IncuCyte ZOOM live cell imaging system (Essen BioSciences, USA). Cells were seeded in 96 well plates (Corning, cat#353072) and treated on the next day. The resulting phase-contrast images were analysed using IncuCyte ZOOM 2018A software and results were expressed as percentage confluency of cells.
Supplementary Fig. 14 Treatment of the eIF4E-dTAG-degradation model with negative control dTAGV-1 compound. a Plot of concentration responsiveness versus cell survival for H1299 clone C3-1 following 120 hr exposure to different concentrations of dTAGv-1. Cell confluency (%) was calculated using Incucyte Zoom software and plotted as the mean ± SD from 3 biological replicates. b Immunoblot of […]
clone treated with 0.5 µM dTAGV-1 or the negative control dTAGV-1 compound for the indicated times. Vinculin was used as a loading control. The immunoblot shown is representative of 3 biological replicates. c Real-time cell confluency measurements of H1299 parental cells treated with 0.5 or 1 µM of dTAGV-1 or the negative control […]
2) treated with 0.5 or 1 µM of the negative control dTAGV-1 compound. Cells were monitored every 4 hr over a 6-day period. Cell confluency (%) was calculated using Incucyte Zoom software and shown as the mean ± SEM from 3 biological replicates.
as §1

CC[C@H](O[C@H](C)CO)c1ccc(-c2ccccc2F)cc1NCCO [Compound 4]
Cap translation, Average ([1]; 1μM): 87.46 | IRES, Average ([1]; 1μM): 89.67 | Cap translation, Average ([1]; 10μM): 74.14 | IRES, Average ([1]; 10μM): 83.90 | inhibitory activity in dual reporter assay ([1]; HEK293 cells, 1 or 10 µM, 24 hr): lacked inhibitory activity | Suppl Fig. 10c signal, Average ([2]; Conc 0.0398 uM): 107.08 | Suppl Fig. 10c signal, Average ([2]; Conc 0.0794 uM): 87.69 | Suppl Fig. 10c signal, Average ([2]; Conc 0.1585 uM): 100.85 | Suppl Fig. 10c signal, Average ([2]; Conc 0.3126 uM): 97.88 | Suppl Fig. 10c signal, Average ([2]; Conc 0.6252 uM): 95.93 | Suppl Fig. 10c signal, Average ([2]; Conc 1.0000 uM): 93.39 | Suppl Fig. 10c signal, Average ([2]; Conc 1.9999 uM): 114.58 | Suppl Fig. 10c signal, Average ([2]; Conc 3.9994 uM): 94.77 | Suppl Fig. 10c signal, Average ([2]; Conc 10.0000 uM): 126.74 | Aqueous kinetic solubility (pH7.5) [3]: 400 µM | eIF4G:eIF4E luminescence signal normalised to DMSO control ([4]; 0.4 μM): 89% and 92.6% | eIF4G:eIF4E luminescence signal normalised to DMSO control ([4]; 4 μM): 47.4% and 46.9% | eIF4G:eIF4E luminescence signal normalised to DMSO control ([4]; 12 μM): 33.5% and 31.6% | eIF4G:eIF4E luminescence signal normalised to DMSO control ([4]; 40 μM): 20.4% and 20.8% | eIF4G:eIF4E SW620, luminescence ratio normalised to DMSO control ([4]; SW620 lysates, 100 µM, 30 min, single experiments Expt 1, Expt 2): 23% and 19% | EC50 ([4]; read-out: EC50, eIF4G binding to eIF4E, SW620 cell lysates, 30 min): 2600 nM

CC[C@H](C(=O)N1CCCC[C@H]1C(=O)O[C@H](CCc1ccc(OC)c(OC)c1)c1ccccc1OCC(=O)NCCCCCCC(=O)N[C@H](C(=O)N1C[C@H](O)C[C@H]1C(=O)N[C@@H](C)c1ccc(-c2scnc2C)cc1)C(C)(C)C)c1cc(OC)c(OC)c(OC)c1 [dTAG^V-1]
Quantification of 4E-BP1 protein expression, Average ([5]; H1299 cells): 0.99 | Quantification of 4E-BP1 protein expression, Average ([5]; eIF4E dTAG C3-1 clone): 0.88 | IC50 [6]: 205 nM and 206 nM
